In the NIST ThermoML archive (doi:10.1021/acs.jced.7b00119):
“And” between values parts separate entries of the source, which are not always exact repeats. Equal entries are not always repeated. Numbers after ± are expanded uncertainties.

How the values were obtained:
[1] = Liquid, Closed cell (Static) method
[2] = excess molar enthalpy (molar enthalpy of mixing); xn = mol fraction of the nth substance listed; details: Liquid, Flow calorimetry

CC(=O)N(C)C [N,N-dimethylethanamide]
[1]
Details	vapor or sublimation pressure
328.15 K	1.61 ± 0.16 kPa and 1.64 ± 0.16 kPa
333.15 K	2.23 ± 0.16 kPa
343.15 K	3.39 ± 0.16 kPa
353.15 K	5.32 ± 0.16 kPa [middle of 5 runs]
363.15 K	8.46 ± 0.16 kPa

CC(=O)N(C)C [N,N-dimethylethanamide] + CCCCCC
[2]
Details	excess molar enthalpy [kcal/mol]
363.15 K, 1982 kPa, x2 = 0.0358	0.0559 ± 0.00215
363.15 K, 1982 kPa, x2 = 0.0726	0.114 ± 0.00335
363.15 K, 1982 kPa, x2 = 0.1106	0.168 ± 0.00454
363.15 K, 1982 kPa, x2 = 0.1498	0.218 ± 0.0055
363.15 K, 1982 kPa, x2 = 0.1902	0.262 ± 0.00645
363.15 K, 1982 kPa, x2 = 0.2319	0.302 ± 0.00741
363.15 K, 1982 kPa, x2 = 0.275	0.337 ± 0.00813
363.15 K, 1982 kPa, x2 = 0.3196	0.366 ± 0.00884
363.15 K, 1982 kPa, x2 = 0.3657	0.391 ± 0.00932
363.15 K, 1982 kPa, x2 = 0.4134	0.41 ± 0.00956
363.15 K, 1982 kPa, x2 = 0.4627	0.419 ± 0.0098
363.15 K, 1982 kPa, x2 = 0.5138	0.426 ± 0.01
363.15 K, 1982 kPa, x2 = 0.5668	0.426 ± 0.01
363.15 K, 1982 kPa, x2 = 0.6218	0.418 ± 0.0098
363.15 K, 1982 kPa, x2 = 0.6788	0.4 ± 0.00956
363.15 K, 1982 kPa, x2 = 0.7381	0.37 ± 0.00884
363.15 K, 1982 kPa, x2 = 0.7997	0.324 ± 0.00789
363.15 K, 1982 kPa, x2 = 0.8638	0.258 ± 0.00645
363.15 K, 1982 kPa, x2 = 0.9305	0.157 ± 0.0043
413.15 K, 1824 kPa, x2 = 0.0179	0.0289 ± 0.00167
413.15 K, 1824 kPa, x2 = 0.0361	0.059 ± 0.00215
413.15 K, 1824 kPa, x2 = 0.0733	0.117 ± 0.00335
413.15 K, 1824 kPa, x2 = 0.1116	0.17 ± 0.00454
413.15 K, 1824 kPa, x2 = 0.151	0.218 ± 0.0055
413.15 K, 1824 kPa, x2 = 0.1917	0.262 ± 0.00645
413.15 K, 1824 kPa, x2 = 0.2337	0.304 ± 0.00741
413.15 K, 1824 kPa, x2 = 0.277	0.338 ± 0.00813
413.15 K, 1824 kPa, x2 = 0.3217	0.369 ± 0.00884
413.15 K, 1824 kPa, x2 = 0.3679	0.396 ± 0.00932
413.15 K, 1824 kPa, x2 = 0.4157	0.421 ± 0.0098
413.15 K, 1824 kPa, x2 = 0.4651	0.433 ± 0.01
413.15 K, 1824 kPa, x2 = 0.5163	0.441 ± 0.0103
413.15 K, 1824 kPa, x2 = 0.5692	0.442 ± 0.0103
413.15 K, 1824 kPa, x2 = 0.6241	0.434 ± 0.01
413.15 K, 1824 kPa, x2 = 0.681	0.415 ± 0.0098
413.15 K, 1824 kPa, x2 = 0.74	0.386 ± 0.00908
413.15 K, 1824 kPa, x2 = 0.8013	0.337 ± 0.00813
413.15 K, 1824 kPa, x2 = 0.8649	0.264 ± 0.00645
413.15 K, 1824 kPa, x2 = 0.9311	0.158 ± 0.0043
413.15 K, 1824 kPa, x2 = 0.9652	0.086 ± 0.00287

CC(=O)N(C)C [N,N-dimethylethanamide] + CCCCCCC
[2], 413.15 K, 1824 kPa
Details	excess molar enthalpy [kcal/mol]
x2 = 0.016	0.0308 ± 0.00167
x2 = 0.0323	0.0619 ± 0.00239
x2 = 0.0659	0.122 ± 0.00359
x2 = 0.1007	0.177 ± 0.00478
x2 = 0.137	0.228 ± 0.00574
x2 = 0.1747	0.276 ± 0.00669
x2 = 0.2139	0.319 ± 0.00765
x2 = 0.2548	0.358 ± 0.0086
x2 = 0.2974	0.393 ± 0.00932
x2 = 0.3419	0.423 ± 0.01
x2 = 0.3883	0.449 ± 0.0105
x2 = 0.4369	0.466 ± 0.0108
x2 = 0.4878	0.476 ± 0.011
x2 = 0.5411	0.48 ± 0.0112
x2 = 0.597	0.474 ± 0.011
x2 = 0.6557	0.456 ± 0.0108
x2 = 0.7175	0.427 ± 0.01
x2 = 0.7825	0.376 ± 0.00884
x2 = 0.8511	0.299 ± 0.00741
x2 = 0.9234	0.181 ± 0.00478
x2 = 0.9612	0.0999 ± 0.00311

CC(=O)N(C)C [N,N-dimethylethanamide] + CCO
[2], 413.15 K, 1824 kPa
Details	excess molar enthalpy [kcal/mol]
x2 = 0.0774	-0.0421 ± 0.00191
x2 = 0.1505	-0.077 ± 0.00263
x2 = 0.2528	-0.116 ± 0.00335
x2 = 0.3471	-0.143 ± 0.00406
x2 = 0.462	-0.163 ± 0.00454
x2 = 0.541	-0.168 ± 0.00454
x2 = 0.6146	-0.166 ± 0.00454
x2 = 0.6833	-0.154 ± 0.0043
x2 = 0.7476	-0.138 ± 0.00382
x2 = 0.8271	-0.109 ± 0.00335
x2 = 0.8826	-0.0805 ± 0.00263
x2 = 0.9349	-0.049 ± 0.00191
x2 = 0.9681	-0.0258 ± 0.00143

CC(=O)N(C)C [N,N-dimethylethanamide] + CCOC(C)=O
[2], 323.15 K, 1307 kPa
Details	excess molar enthalpy [kcal/mol]
x2 = 0.0476	0.00669 ± 0.0011
x2 = 0.0954	0.0126 ± 0.00124
x2 = 0.1435	0.0188 ± 0.00136
x2 = 0.1918	0.0239 ± 0.00143
x2 = 0.2404	0.0284 ± 0.00167
x2 = 0.2892	0.0327 ± 0.00167
x2 = 0.3383	0.0361 ± 0.00167
x2 = 0.3876	0.0392 ± 0.00191
x2 = 0.4372	0.0413 ± 0.00191
x2 = 0.487	0.043 ± 0.00191
x2 = 0.5371	0.044 ± 0.00191
x2 = 0.5875	0.0437 ± 0.00191
x2 = 0.6381	0.043 ± 0.00191
x2 = 0.689	0.0409 ± 0.00191
x2 = 0.7401	0.0382 ± 0.00167
x2 = 0.7916	0.0344 ± 0.00167
x2 = 0.8433	0.0287 ± 0.00167
x2 = 0.8952	0.0212 ± 0.00141
x2 = 0.9475	0.0119 ± 0.00122

CC(=O)N(C)C [N,N-dimethylethanamide] + CO
[2], 413.15 K, 1824 kPa
Details	excess molar enthalpy [kcal/mol]
x2 = 0.1079	-0.0748 ± 0.00263
x2 = 0.2034	-0.13 ± 0.00382
x2 = 0.2885	-0.17 ± 0.00454
x2 = 0.3648	-0.196 ± 0.00502
x2 = 0.4337	-0.212 ± 0.0055
x2 = 0.4961	-0.22 ± 0.00574
x2 = 0.553	-0.221 ± 0.00574
x2 = 0.605	-0.217 ± 0.0055
x2 = 0.6527	-0.207 ± 0.00526
x2 = 0.6967	-0.197 ± 0.00502
x2 = 0.7374	-0.181 ± 0.00478
x2 = 0.7751	-0.163 ± 0.00454
x2 = 0.8101	-0.145 ± 0.00406
x2 = 0.8428	-0.125 ± 0.00359
x2 = 0.8733	-0.105 ± 0.00311
x2 = 0.9019	-0.0848 ± 0.00287
x2 = 0.9287	-0.0633 ± 0.00239
x2 = 0.9539	-0.0423 ± 0.00191
x2 = 0.9776	-0.0213 ± 0.00141
